Data taken from patent US5597919A, “Pyrimidinyl or Pyridinyl alkenyl amine compounds” (priority 1995, dated 1997).

Assays:
[1] = test system: dopamine release from synaptosomes of the striatal area of rat brain; format: biochemical, rat (Sprague-Dawley); conditions: for Dopamine Release Emax (% nicotine): rat, striatal synaptosomes
[2] = test system: ganglionic-type neuronal nicotinic receptors (rat pheochromocytoma clonal line PC 12); assay: Interaction with ganglia: 86Rb+ efflux in PC12 cells; format: cell-based

## NCC/C=C/c1cncnc1.O=C(O)/C=C/C(=O)O [Sample No. 1, (E)-4-(5-pyrimidinyl)-3-butene-1-amine monofumarate]
[1]
  EC50: 4.36 µM
  Dopamine Release Emax (% nicotine): 113 % nicotine

## CNCC/C=C/c1cncnc1 [Sample No. 2, (E)-N-methyl-4-(5-pyrimidinyl)-3-butene-1-amine]
[1]
  EC50: 5.8 µM
  Dopamine Release Emax (% nicotine): 77 % nicotine
[2]
  Ganglion Effect (% nicotine): 1 % nicotine

## COc1cncc(/C=C/CCN)c1 [Sample No. 3, (E)-4-[3-(5-methoxypyridin)yl]-3-butene-1-amine monofumarate]
[1]
  EC50: 4 µM
  Dopamine Release Emax (% nicotine): 95 % nicotine
[2]
  Ganglion Effect (% nicotine): 0 % nicotine

## CNCCC#Cc1cccnc1 [Sample No. 4, N-Methyl-4-(3-pyridinyl)-3-butyne-1-amine]
[1]
  EC50: 8.35 µM
  Dopamine Release Emax (% nicotine): 87 % nicotine
[2]
  Ganglion Effect (% nicotine): 59 % nicotine

## CNCC/C=C\c1cccnc1 [Sample No. 5, (Z)-metanicotine]
[1]
  EC50: 11.3 µM
  Dopamine Release Emax (% nicotine): 88 % nicotine

## CNCC/C=C/c1ccc(C)nc1 [Sample No. 6, (E)-N-methyl-4-[3-(6-methylpyrindin)yl]-3-butene-1-amine]
[1]
  EC50: 0.219 µM
  Dopamine Release Emax (% nicotine): 60 % nicotine
[2]
  Ganglion Effect (% nicotine): 4 % nicotine

## CNCCCCc1cccnc1 [Sample No. 7, N-methyl-(3-1-pyridinyl)-butane-1-amine]
[1]
  Dopamine Release Emax (% nicotine): 72 % nicotine
[2]
  Ganglion Effect (% nicotine): 31 % nicotine

## CNCC/C=C/c1cccnc1 [Sample No. 8, (E)-metanicotine]
[1]
  EC50: 1.47 µM
  Dopamine Release Emax (% nicotine): 80 % nicotine

## CN1CCC[C@H]1c1cccnc1 [Sample No. C-1, (S)-(-)-nicotine, reference compound]
[1]
  EC50: 0.115 µM
